In patent publication US20240025863A1, “SOS1 PROTEIN DEGRADERS, PHARMACEUTICAL COMPOSITIONS THEREOF, AND THEIR THERAPEUTIC APPLICATIONS” (BioTheryX, Inc., priority 2020, published 2024):
Read-outs that look alike come from different tables or passages of the source.

Experiments:
Format in all cases: cell-based
[1] = test system: Lovo cells (G13D); experiment: Cell viability assay (CellTiter-Glo), Lovo cells; conditions: Homo sapiens, 72 h, read-out: Inhibition of Cancerous Cells IC50 Lovo (G13D)
How it was run: (§1)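 Cells were plated in their growth medium (RPMI 1640 for H358 and SW48, DMEM for Lovo and SW480) with 2.5% FBS, then exposed to compound or DMSO for 3 days at 37 °C, 5% CO2. Viability was read as CellTiter-Glo luminescence after 10 min shaking.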

[2] = test system: SW480 cells (G12V); experiment: Cell viability assay (CellTiter-Glo), SW480 cells; conditions: Homo sapiens, read-out: Inhibition of Cancerous Cells IC50 SW480 (G12V)
How it was run: as §1

[3] = test system: SW48 cells (wt); experiment: Cell viability assay (CellTiter-Glo), SW48 cells; conditions: Homo sapiens, read-out: Inhibition of Cancerous Cells IC50 SW48 (wt)
How it was run: as §1

[4] = test system: H23 cells; experiment: Cell viability assay (CellTiter-Glo), H23 cells; conditions: Homo sapiens, NCI-H23, 72 h, read-out: Inhibition of Cancerous Cells IC50 H23
Experimental: H358, H23, SW48, and AsPC-1 cells were cultured in RPMI 1640 media supplemented with 10% fetal bovine serum, streptomycin, and penicillin. Lovo and SW480 cells were cultured in DMEM media supplemented with 10% fetal bovine serum, streptomycin, and penicillin. The cell lines were plated in their respective medium supplemented with 2.5% fetal bovine serum, streptomycin, and penicillin. All cell lines were plated in white walled 96-well plates at 2,000 cells/well or 384-well plates at 500 cells/well, except Lovo, which were plated at 4,000 or 1,000 cells/well, respectively. The cells were incubated in DMSO (control) or a compound for 3 days at 37° C. under 5% CO2. A CELLTITER-GLO® reagent (100 μL) was then added to each well. After a 10 min incubation with shaking, luminescence was measured using an ENVISION® multimode plate reader.

[5] = test system: H358 cells (G12C); experiment: Cell viability assay (CellTiter-Glo), H358 cells; conditions: Homo sapiens, NCI-H358, 72 h, read-out: Inhibition of Cancerous Cells IC50 H358 (G12C)
How it was run: as §1

[6] = H23 cells, 3 days incubation, CellTiter-Glo luminescence
[7] = H358 cells, 3 days incubation, CellTiter-Glo luminescence
[8] = Lovo cells, 3 days incubation, CellTiter-Glo luminescence
[9] = 72 h, SW480 cells, 3 days incubation, CellTiter-Glo luminescence
[10] = 72 h, SW48 cells, 3 days incubation, CellTiter-Glo luminescence

| IC50 [5, 7] [nM] | Compound | IC50 [4, 6] [nM] | other results |
| --- | --- | --- | --- |
|  | COc1cc2c(N[C@H](C)c3cccc(Br)c3)nc(C)nc2cc1OCCCCCCCN1CCC(c2cc(F)cc3c2CN(C2CCC(=O)NC2=O)C3=O)CC1 (stereo partly drawn) [Compound A1, 3-(4-(1-(7-((4-(((R)-1-(3-bromophenyl)ethyl)amino)-6-methoxy-2-methylquinazolin-7-yl)oxy)heptyl)piperidin-4-yl)-6-fluoro-1-oxoisoindolin-2-yl)piperidine-2,6-dione] |  | IC50 ([1]; LoVo): 940 nM; IC50 ([2]; SW480, 72 h): 580 nM; IC50 ([3]; SW48, 72 h): 700 nM; IC50 [4]: 1200 nM; IC50 [5]: 2800 nM |
| 3000 | COc1cc2c(N[C@H](C)c3cccc(Br)c3)nc(C)nc2cc1OC1CCN(CCCCN2CCC(c3cc(F)cc4c3CN(C3CCC(=O)NC3=O)C4=O)CC2)CC1 (stereo partly drawn) [Compound A18, 3-(4-(1-(4-(4-((4-(((R)-1-(3-Bromophenyl)ethyl)amino)-6-methoxy-2-methyl-quinazolin-7-yl)oxy)piperidin-1-yl)butyl)piperidin-4-yl)-6-fluoro-1-oxoisoindolin-2-yl)-piperidine-2,6-dione] | 2600 |  |
| 1700 | COc1cc2nc(C)nc(N[C@H](C)c3cccc(Br)c3)c2cc1OCCCCCCCN1CCC(c2cc(F)cc3c2CN(C2CCC(=O)NC2=O)C3=O)CC1 (stereo partly drawn) [Compound A19, 3-(4-(1-(7-((4-(((R)-1-(3-Bromophenyl)ethyl)amino)-7-methoxy-2-methyl-quinazolin-6-yl)oxy)heptyl)piperidin-4-yl)-6-fluoro-1-oxoisoindolin-2-yl)piperidine-2,6-dione] | 1900 |  |
| 790 | COc1cc2c(N[C@H](C)c3cccc(Br)c3)nc(C)nc2cc1OCCCCCCCN1CCC(c2cc3c(cc2F)C(=O)N(C2CCC(=O)NC2=O)C3)CC1 (stereo partly drawn) [Compound A22, 3-(5-(1-(7-((4-(((R)-1-(3-bromophenyl)ethyl)amino)-6-methoxy-2-methylquinazolin-7-yl)oxy)heptyl)piperidin-4-yl)-6-fluoro-1-oxoisoindolin-2-yl)piperidine-2,6-dione] | 900 |  |
| 8800 | COc1cc2c(N[C@H](C)c3cccc(Br)c3)nc(C)nc2cc1OCCOCCOCCNc1cccc2c1C(=O)N(C1CCC(=O)NC1=O)C2=O (stereo partly drawn) [Compound A36, 4-((2-(2-(2-((4-(((R)-1-(3-Bromophenyl)ethyl)amino)-6-methoxy-2-methyl-quinazolin-7-yl)oxy)ethoxy)ethoxy)ethyl)amino)-2-(2,6-dioxopiperidin-3-yl)isoindoline-1,3-dione] | 8300 |  |
| 1500 | COc1cc2c(N[C@H](C)c3cccc(Br)c3)nc(C)nc2cc1OCCCCCCCNCc1ccc(OCc2scc3c2CN(C2CCC(=O)NC2=O)C3=O)cc1 (stereo partly drawn) [Compound A41, 3-(1-((4-(((7-((4-(((R)-1-(3-Bromophenyl)ethyl)amino)-6-methoxy-2-methyl-quinazolin-7-yl)oxy)heptyl)amino)methyl)phenoxy)methyl)-4-oxo-4H-thieno[3,4-c]pyrrol-5(6H)-yl)piperidine-2,6-dione] | 1300 |  |
| > 10000 | CCOc1cc(C(C)(C)C)ccc1C1=N[C@@](C)(c2ccc(Cl)cc2)[C@@](C)(c2ccc(Cl)cc2)N1C(=O)N1CCN(CCC(=O)NCCCCCCCCCOc2cc3nc(C)nc(N[C@H](C)c4cccc(Br)c4)c3cc2OC)CC1 [Compound C7, N-(9-((4-(((R)-1-(3-Bromophenyl)ethyl)amino)-6-methoxy-2-methylquinazolin-7-yl)oxy)nonyl)-3-(4-((4S,5R)-2-(4-(tert-butyl)-2-ethoxyphenyl)-4,5-bis(4-chlorophenyl)-4,5-dimethyl-4,5-dihydro-1H-imidazole-1-carbonyl)piperazin-1-yl)propanamide] | > 10000 | IC50 [1, 8]: 6600 nM; IC50 [2, 9]: > 10000 nM; IC50 [3, 10]: > 10000 nM |
| 2800 | CCOc1cc(C(C)(C)C)ccc1C1=N[C@@](C)(c2ccc(Cl)cc2)[C@@](C)(c2ccc(Cl)cc2)N1C(=O)N1CCN(CCC(=O)NCCCCCOc2cc3nc(C)nc(N[C@H](C)c4cccc(Br)c4)c3cc2OC)CC1 [Compound C8, N-(5-((4-(((R)-1-(3-Bromophenyl)ethyl)amino)-6-methoxy-2-methylquinazolin-7-yl)oxy)pentyl)-3-(4-((4S,5R)-2-(4-(tert-butyl)-2-ethoxyphenyl)-4,5-bis(4-chlorophenyl)-4,5-dimethyl-4,5-dihydro-1H-imidazole-1-carbonyl)piperazin-1-yl)propanamide] | > 10000 | IC50 [1, 8]: 540 nM; IC50 [2, 9]: 1400 nM; IC50 [3, 10]: 1100 nM |
| 15000 | COc1cc2c(N[C@H](C)c3cccc(Br)c3)nc(C)nc2cc1OCCCCCCCCC(=O)N[C@H](C(=O)N1C[C@H](O)C[C@H]1C(=O)NCc1ccc(-c2scnc2C)cc1)C(C)(C)C [Compound D2, (2S,4R)-1-((S)-2-(9-((4-(((R)-1-(3-bromophenyl)ethyl)amino)-6-methoxy-2-methylquinazolin-7-yl)oxy)nonanamido)-3,3-dimethylbutanoyl)-4-hydroxy-N-(4-(4-methylthiazol-5-yl)benzyl)pyrrolidine-2-carboxamide] | 13000 |  |
| 6100 | COc1cc2c(N[C@@H](C)c3cccs3)nc(C)nc2cc1OCCCCCCCCC(=O)N[C@H](C(=O)N1C[C@H](O)C[C@H]1C(=O)NCc1ccc(-c2scnc2C)cc1)C(C)(C)C [Compound D6, (2S,4R)-4-Hydroxy-1-((S)-2-(9-((6-methoxy-2-methyl-4-(((S)-1-(thiophen-2-yl)ethyl)amino)quinazolin-7-yl)oxy)nonanamido)-3,3-dimethylbutanoyl)-N-(4-(4-methylthiazol-5-yl)benzyl)pyrrolidine-2-carboxamide] | 2700 |  |
| 970 | CNCc1ccccc1-c1csc([C@@H](C)Nc2nc(C)nc3cc(OCCCCCCCCC(=O)N[C@H](C(=O)N4C[C@H](O)C[C@H]4C(=O)NCc4ccc(-c5scnc5C)cc4)C(C)(C)C)c(OC)cc23)c1 [Compound D9, (2S,4R)-4-hydroxy-1-((S)-2-(9-((6-methoxy-2-methyl-4-(((R)-1-(4-(2-((methylamino)methyl)phenyl)thiophen-2-yl)ethyl)amino)quinazolin-7-yl)oxy)nonanamido)-3,3-dimethylbutanoyl)-N-(4-(4-methylthiazol-5-yl)benzyl)pyrrolidine-2-carboxamide] | 1000 |  |
| 750 | CNCc1ccccc1-c1csc([C@H](C)Nc2nc(C)nc3cc(OCCCCCCCCC(=O)N[C@H](C(=O)N4C[C@H](O)C[C@H]4C(=O)NCc4ccc(-c5scnc5C)cc4)C(C)(C)C)c(OC)cc23)c1 [Compound D10, (2S,4R)-4-hydroxy-1-((S)-2-(9-((6-methoxy-2-methyl-4-(((S)-1-(4-(2-((methylamino)methyl)phenyl)thiophen-2-yl)ethyl)amino)quinazolin-7-yl)oxy)nonanamido)-3,3-dimethylbutanoyl)-N-(4-(4-methylthiazol-5-yl)benzyl)pyrrolidine-2-carboxamide] | 930 |  |
| 4100 | COc1cc2nc(C)nc(N[C@H](C)c3cccc(Br)c3)c2cc1OC [drawing 284, reference compound] | 4800 | IC50 [1, 8]: 2200 nM; IC50 [2, 9]: 2800 nM; IC50 [3, 10]: 3600 nM |
| 2100 | CNCc1ccccc1-c1csc([C@@H](C)Nc2nc(C)nc3cc(OC)c(OC)cc23)c1 [reference compound] | 1500 |  |
| 2400 | CNCc1ccccc1-c1csc([C@H](C)Nc2nc(C)nc3cc(OC)c(OC)cc23)c1 [reference compound] | 2300 |  |
